Assay results as given in US11040981B2, “Pyrrolotriazine compounds and methods of inhibiting TAM kinases” (Syros Pharmaceuticals, Inc., priority 2017, dated 2021).

Experiments:
TYRO3 = target: T1, TYRO3 (Homo sapiens, UniProt Q06418); assay: TR-FRET kinase activity assay, TYRO3; type: biochemical; settings: ATP at Km, 60 minutes
T1 sequence (Q06418 41-890): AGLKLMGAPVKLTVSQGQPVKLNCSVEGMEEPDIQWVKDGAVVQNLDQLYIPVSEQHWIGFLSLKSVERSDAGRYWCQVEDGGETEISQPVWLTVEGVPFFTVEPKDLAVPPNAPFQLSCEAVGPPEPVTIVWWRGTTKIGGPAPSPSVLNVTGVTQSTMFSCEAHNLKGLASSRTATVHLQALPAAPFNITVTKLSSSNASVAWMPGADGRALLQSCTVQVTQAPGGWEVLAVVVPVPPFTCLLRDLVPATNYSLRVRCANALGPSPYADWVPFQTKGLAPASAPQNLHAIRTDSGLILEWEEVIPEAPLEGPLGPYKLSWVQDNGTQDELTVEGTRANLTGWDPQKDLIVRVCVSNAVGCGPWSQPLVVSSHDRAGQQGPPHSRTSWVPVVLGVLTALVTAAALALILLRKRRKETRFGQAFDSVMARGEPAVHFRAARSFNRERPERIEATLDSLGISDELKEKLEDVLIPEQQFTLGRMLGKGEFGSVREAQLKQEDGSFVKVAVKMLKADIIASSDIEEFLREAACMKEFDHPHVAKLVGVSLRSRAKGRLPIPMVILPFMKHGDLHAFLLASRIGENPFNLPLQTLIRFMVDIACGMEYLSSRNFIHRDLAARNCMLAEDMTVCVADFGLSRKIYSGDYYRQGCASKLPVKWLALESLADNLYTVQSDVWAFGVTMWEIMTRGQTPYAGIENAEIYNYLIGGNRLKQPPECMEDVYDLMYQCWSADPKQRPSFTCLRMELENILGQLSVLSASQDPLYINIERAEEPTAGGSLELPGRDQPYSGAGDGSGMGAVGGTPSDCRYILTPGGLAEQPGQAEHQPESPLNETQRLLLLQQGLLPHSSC
Outline: (§1)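 Enzyme, fluorescent peptide substrate and compound were mixed, and the reaction was started with ATP at each kinase's Km, in 50 mM HEPES pH 7.5, 10 mM MgCl2, 1 mM EGTA, 0.01% Brij 35, 1 mM DTT at RT. After 60 minutes EDTA quench, Eu-labelled phospho-specific antibody was added for 30 minutes, and IC50 was derived from TR-FRET signal loss.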

FLT3 = target: T2, FLT3 (Homo sapiens, UniProt P36888); assay: TR-FRET kinase activity assay, FLT3; type: biochemical; settings: ATP at Km, 60 minutes
T2 sequence (P36888 27-993): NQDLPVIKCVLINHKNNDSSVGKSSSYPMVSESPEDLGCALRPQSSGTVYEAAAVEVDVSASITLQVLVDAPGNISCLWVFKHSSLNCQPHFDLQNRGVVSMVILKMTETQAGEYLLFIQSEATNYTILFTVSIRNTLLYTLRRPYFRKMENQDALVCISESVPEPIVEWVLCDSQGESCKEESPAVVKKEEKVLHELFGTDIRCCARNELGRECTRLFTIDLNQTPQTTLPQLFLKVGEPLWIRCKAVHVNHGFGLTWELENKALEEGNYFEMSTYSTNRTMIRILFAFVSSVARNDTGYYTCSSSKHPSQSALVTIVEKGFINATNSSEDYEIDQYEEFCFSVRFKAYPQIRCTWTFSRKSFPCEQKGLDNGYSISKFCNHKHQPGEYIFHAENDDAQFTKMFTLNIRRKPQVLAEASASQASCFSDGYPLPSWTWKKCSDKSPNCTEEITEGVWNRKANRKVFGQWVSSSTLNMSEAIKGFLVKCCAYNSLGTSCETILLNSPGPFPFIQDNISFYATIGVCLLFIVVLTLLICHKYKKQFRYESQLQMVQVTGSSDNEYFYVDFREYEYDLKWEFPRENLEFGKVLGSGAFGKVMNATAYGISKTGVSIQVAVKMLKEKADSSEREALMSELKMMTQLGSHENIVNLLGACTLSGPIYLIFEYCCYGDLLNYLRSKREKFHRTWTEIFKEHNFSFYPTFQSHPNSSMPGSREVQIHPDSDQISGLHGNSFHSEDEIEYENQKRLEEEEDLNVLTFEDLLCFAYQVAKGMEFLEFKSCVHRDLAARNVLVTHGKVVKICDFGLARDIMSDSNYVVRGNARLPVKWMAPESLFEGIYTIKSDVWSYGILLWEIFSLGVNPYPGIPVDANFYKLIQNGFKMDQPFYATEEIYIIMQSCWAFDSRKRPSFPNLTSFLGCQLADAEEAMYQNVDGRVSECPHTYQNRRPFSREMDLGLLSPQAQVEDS
Outline: as §1

Row | Compound | IC50 (TYRO3) | IC50 (FLT3)
1 | CCCCC[C@H](C)Nc1ncc2c(-c3ccc(S(=O)(=O)N4CCOCC4)cc3)cc([C@H]3CC[C@@H](O)CC3)n2n1 [Compound 103, (1R,4s)-4-(2-((S)-heptan-2-ylamino)-5-(4-(morpholinosulfonyl)phenyl)pyrrolo[2,1-f][1,2,4]triazin-7-yl)cyclohexanol] | 100 to 1000 nM | 100 to 1000 nM
2 | Cc1cc(-c2cc(C3CCC(O)CC3)n3nc(NC(C)CC4CC4)ncc23)ccn1 (stereo not drawn) [Compound 190] | ≤ 100 nM | ≤ 100 nM
3 | COCC(C)Nc1ncc2c(C3CC4CCC(C3)N4C)cc(C3CCC(O)CC3)n2n1 (stereo not drawn) [Compound 191] | ≤ 100 nM | 1000 to 10000 nM
4 | COCC(C)Nc1ncc2c(N3CCOCC3=O)cc(C3CCC(O)CC3)n2n1 (stereo not drawn) [Compound 192] | 1000 to 10000 nM | 1000 to 10000 nM
5 | COC[C@H](C)Nc1ncc2c(-c3cn(C)cn3)cc([C@H]3CC[C@H](O)CC3)n2n1 [Compound 186] | ≤ 100 nM | 100 to 1000 nM
6 | COCC(C)Nc1ncc2c(-c3ccc(C4(N5CCN(C)CC5)CC4)cc3)cc(C3CCC(O)CC3)n2n1 (stereo not drawn) [Compound 185] | ≤ 100 nM | 100 to 1000 nM
7 | COC[C@H](C)Nc1ncc2c(-c3ccc(C(=O)N4CCOCC4)cc3)cc([C@H]3CC[C@H](O)CC3)n2n1 [Compound 187, (4-(7-((trans)-4-hydroxycyclohexyl)-2-(((S)-1-methoxypropan-2-yl)amino)pyrrolo[2,1-f][1,2,4]triazin-5-yl)phenyl)(morpholino)methanone] | ≤ 100 nM | 100 to 1000 nM
8 | C[C@@H](COC(F)F)Nc1ncc2c(-c3ccc(CN4CCOCC4)cc3)cc([C@H]3CC[C@H](O)CC3)n2n1 [Compound 188] | ≤ 100 nM | ≤ 100 nM
9 | CC(CC1CC1)Nc1ncc2c(-c3ccc(CN4CCOCC4)cc3)cc(C3CCC(O)CC3)n2n1 (stereo not drawn) [Compound 189] | ≤ 100 nM | ≤ 100 nM
